Reference: patent US9340513B2, “Propenoate derivatives of betulin” (GlaxoSmithKline LLC, priority 2011, dated 2016)
pIC50: −log10 of the molar value.

Test system: HIV-1 (strain IIIB)
Experiment: MT4 Cell Antiviral Assay
Format: cell-based
Conditions: Human immunodeficiency virus 1, 120 h; HIV-1 strain IIIB in MT4 cells, 5 days, Cell Titer-Glo; 50% decrease in HIV-induced cytopathic effect
Experimental: Antiviral HIV activity and compound-induced cytotoxicity were measured in parallel based on a modified protocol of the propidium iodide based procedure in the human T-cell lymphotropic virus transformed cell line MT4. Aliquots of the test compounds were serially diluted in DMSO plated in 96-well plates. Exponentially growing MT4 cells were harvested and pelleted. Cell pellets were resuspended in fresh medium (RPMI 1640, 10% FCS, and gentamycin. Cell aliquots were infected by the addition of HIV-1 (strain IIIB) diluted to give a viral multiplicity of infection of 300×TCID50/million cells. A similar cell aliquot was diluted with medium to provide a mock-infected control. Cell infection was allowed to proceed for 1 hr at 37° C. in a tissue culture incubator with humidified 5% CO2 atmosphere. After the 1 hr incubation the virus/cell suspensions were diluted with fresh medium, and added to each well of the plate containing pre-diluted compound. Plates were then placed in a tissue culture incubator with humidified 5% CO2 for 5 days. […] The plates were analyzed in an automated plate reader for luminescence.assay. The control and standard used was efavirinz tested over a concentration range of 0.001 to 1 μM in every assay. The expected range of IC50 values for efavirinz is 0.1 to 1 nM.
The antiviral effect of a test compound is reported as an IC50, i.e. the inhibitory concentration that would produce a 50% decrease in the HIV-induced cytopathic effect. This effect is measured by the amount of test compound required to restore 50% of the cell growth of HIV-infected MT4 cells, compared to uninfected MT4 cell controls. IC50 was calculated by RoboSage, Automated Curve Fitting Program.
For each assay plate, the results (of wells containing uninfected cells or infected cells with no compound were averaged, respectively. For measurements of compound-induced cytotoxicty, results from wells containing various compound concentrations and uninfected cells were compared to the average of uninfected cells without compound treatment. Percent of cells remaining is determined by the following formula: Percent of cells remaining=(compound-treated uninfected cells/untreated uninfected cells)×100.
A level of percent of cells remaining of 79% or less indicates a significant level of direct compound-induced cytotoxicity for the compound at that concentration. When this condition occurs the results from the compound-treated infected wells at this concentration are not included in the calculation of IC50.
For measurements of compound antiviral activity, results from wells containing various compound concentrations and infected cells are compared to the average of uninfected and infected cells without compound treatment. Percent inhibition of virus is determined by the following formula: Percent inhibition of virus=(1−((ave. untreated uninfected cells−treated infected cells)/(ave. untreated uninfected cells−ave. untreated infected cells)))×100

Row | Compound | pIC50
1 | CC(C)C1=C2[C@H]3CC[C@@H]4[C@@]5(C)CC[C@H](OC(=O)CC(C)(C)C(=O)O)C(C)(C)[C@@H]5CC[C@@]4(C)[C@]3(C)CC[C@@]2(/C=C/C(=O)NC2(c3ccc(Cl)cc3)CC2)CC1=O [Example 1, 4-(((3aS,5aR,5bR,7aR,9S,11aR,11bR,13aS)-3a-((E)-3-((1-(4-Chlorophenyl)cyclopropyl)amino)-3-oxoprop-1-en-1-yl)-1-isopropyl-5a,5b,8,8,11a-pentamethyl-2-oxo-3,3a,4,5,5a,5b,6,7,7a,8,9,10,11,11a,11b,12,13,13a-octadecahydro-2H-cyclopenta[a]chrysen-9-yl)oxy)-2,2-dimethyl-4-oxobutanoic acid] | > 8.00
2 | CC(C)C1=C2[C@H]3CC[C@@H]4[C@@]5(C)CC[C@H](OC(=O)CC(C)(C)C(=O)O)C(C)(C)[C@@H]5CC[C@@]4(C)[C@]3(C)CC[C@@]2(/C=C/C(=O)Nc2ccc(Cl)cc2)CC1=O [Example 2, 4-(((3aS,5aR,5bR,7aR,9S,11aR,11bR,13aS)-3a-((E)-3-((4-Chlorophenyl)amino)-3-oxoprop-1-en-1-yl)-1-isopropyl-5a,5b,8,8,11a-pentamethyl-2-oxo-3,3a,4,5,5a,5b,6,7,7a,8,9,10,11,11a,11b,12,13,13a-octadecahydro-2H-cyclopenta[a]chrysen-9-yl)oxy)-2,2-dimethyl-4-oxobutanoic acid] | 6.60 to 8.00
3 | CC(C)C1=C2[C@H]3CC[C@@H]4[C@@]5(C)CC[C@H](OC(=O)CC(C)(C)C(=O)O)C(C)(C)[C@@H]5CC[C@@]4(C)[C@]3(C)CC[C@@]2(/C=C/C(=O)N[C@@H](C)c2ccc(Cl)cn2)CC1=O [Example 3, 4-(((3aS,5aR,5bR,7aR,9S,11aR,11bR,13aS)-3a-((E)-3-(((S)-1-(5-Chloropyridin-2-yl)ethyl)amino)-3-oxoprop-1-en-1-yl)-1-isopropyl-5a,5b,8,8,11a-pentamethyl-2-oxo-3,3a,4,5,5a,5b,6,7,7a,8,9,10,11,11a,1 b,12,13,13a-octadecahydro-2H-cyclopenta[a]chrysen-9-yl)oxy)-2,2-dimethyl-4-oxobutanoic acid] | > 8.00
4 | CC(C)C1=C2[C@H]3CC[C@@H]4[C@@]5(C)CC[C@H](OC(=O)CC(C)(C)C(=O)O)C(C)(C)[C@@H]5CC[C@@]4(C)[C@]3(C)CC[C@@]2(/C=C/C(=O)N[C@H](C)c2ccc(Cl)cc2)CC1=O [Example 4, 4-(((3aS,5aR,5bR,7aR,9S,11aR,11bR,13aS)-3a-((E)-3-(((R)-1-(4-Chlorophenyl)ethyl)amino)-3-oxoprop-1-en-1-yl)-1-isopropyl-5a,5b,8,8,11a-pentamethyl-2-oxo-3,3a,4,5,5a,5b,6,7,7a,8,9,10,11,11a,11b,12,13,13a-octadecahydro-2H-cyclopenta[a]chrysen-9-yl)oxy)-2,2-dimethyl-4-oxobutanoic acid] | 6.60 to 8.00
5 | CC(C)C1=C2[C@H]3CC[C@@H]4[C@@]5(C)CC[C@H](OC(=O)CC(C)(C)C(=O)O)C(C)(C)[C@@H]5CC[C@@]4(C)[C@]3(C)CC[C@@]2(/C=C/C(=O)N[C@H](C)c2ccc(Cl)cn2)CC1=O [Example 5, 4-(((3aS,5aR,5bR,7aR,9S,11aR,11bR,13aS)-3a-((E)-3-(((R)-1-(5-Chloropyridin-2-yl)ethyl)amino)-3-oxoprop-1-en-1-yl)-1-isopropyl-5a,5b,8,8,11a-pentamethyl-2-oxo-3,3a,4,5,5a,5b,6,7,7a,8,9,10,11,11a,1 b,12,13,13a-octadecahydro-2H-cyclopenta[a]chrysen-9-yl)oxy)-2,2-dimethyl-4-oxobutanoic acid] | > 8.00
6 | CC(C)C1=C2[C@H]3CC[C@@H]4[C@@]5(C)CC[C@H](OC(=O)CC(C)(C)C(=O)O)C(C)(C)[C@@H]5CC[C@@]4(C)[C@]3(C)CC[C@@]2(/C=C/C(=O)N[C@@H](C)c2ccc(Cl)cc2)CC1=O [Example 6, 4-(((3aS,5aR,5bR,7aR,9S,11aR,11bR,13aS)-3a-((E)-3-(((S)-1-(4-Chlorophenyl)ethyl)amino)-3-oxoprop-1-en-1-yl)-1-isopropyl-5a,5b,8,8,11a-pentamethyl-2-oxo-3,3a,4,5,5a,5b,6,7,7a,8,9,10,11,11a,11b,12,13,13a-octadecahydro-2H-cyclopenta[a]chrysen-9-yl)oxy)-2,2-dimethyl-4-oxobutanoic acid] | 6.60 to 8.00
7 | CC(C)C1=C2[C@H]3CC[C@@H]4[C@@]5(C)CC[C@H](OC(=O)CC(C)(C)C(=O)O)C(C)(C)[C@@H]5CC[C@@]4(C)[C@]3(C)CC[C@@]2(/C=C/C(=O)NC2(c3ccc(Cl)cn3)CC2)CC1=O [Example 7, 4-(((3aS,5aR,5bR,7aR,9S,11aR,11bR,13aS)-3a-((E)-3-((1-(5-Chloropyridin-2-yl)cyclopropyl)amino)-3-oxoprop-1-en-1-yl)-1-isopropyl-5a,5b,8,8,11a-pentamethyl-2-oxo-3,3a,4,5,5a,5b,6,7,7a,8,9,10,11,11a,11b,12,13,13a-octadecahydro-2H-cyclopenta[a]chrysen-9-yl)oxy)-2,2-dimethyl-4-oxobutanoic acid] | > 8.00
8 | CC(C)C1=C2[C@H]3CC[C@@H]4[C@@]5(C)CC[C@H](OC(=O)CC(C)(C)C(=O)O)C(C)(C)[C@@H]5CC[C@@]4(C)[C@]3(C)CC[C@@]2(/C=C/C(=O)N[C@@H](C)c2ccncn2)CC1=O [Example 8, 4-(((3aS,5aR,5bR,7aR,9S,11aR,11bR,13aS)-1-Isopropyl-5a,5b,8,8,11a-pentamethyl-2-oxo-3a-((E)-3-oxo-3-(((S)-1-(pyrimidin-4-yl)ethyl)amino)prop-1-en-1-yl)-3,3a,4,5,5a,5b,6,7,7a,8,9,10,11,11a,11b,12,13,13a-octadecahydro-2H-cyclopenta[a]chrysen-9-yl)oxy)-2,2-dimethyl-4-oxobutanoic acid] | 6.60 to 8.00
9 | CC(C)C1=C2[C@H]3CC[C@@H]4[C@@]5(C)CC[C@H](OC(=O)CC(C)(C)C(=O)O)C(C)(C)[C@@H]5CC[C@@]4(C)[C@]3(C)CC[C@@]2(/C=C/C(=O)N[C@H](C)c2ccncn2)CC1=O [Example 9, 4-(((3aS,5aR,5bR,7aR,9S,11aR,11bR,13aS)-1-Isopropyl-5a,5b,8,8,11a-pentamethyl-2-oxo-3a-((E)-3-oxo-3-(((R)-1-(pyrimidin-4-yl)ethyl)amino)prop-1-en-1-yl)-3,3a,4,5,5a,5b,6,7,7a,8,9,10,11,11a,11b,12,13,13a-octadecahydro-2H-cyclopenta[a]chrysen-9-yl)oxy)-2,2-dimethyl-4-oxobutanoic acid] | 6.60 to 8.00
10 | CC(C)C1=C2[C@H]3CC[C@@H]4[C@@]5(C)CC[C@H](OC(=O)CC(C)(C)C(=O)O)C(C)(C)[C@@H]5CC[C@@]4(C)[C@]3(C)CC[C@@]2(/C=C/C(=O)N[C@H](C)c2ncccn2)CC1=O [Example 10, 4-(((3aS,5aR,5bR,7aR,9S,11aR,11bR,13aS)-1-Isopropyl-5a,5b,8,8,11a-pentamethyl-2-oxo-3a-((E)-3-oxo-3-(((R)-1-(pyrimidin-2-yl)ethyl)amino)prop-1-en-1-yl)-3,3a,4,5,5a,5b,6,7,7a,8,9,10,11,11a,11b,12,13,13a-octadecahydro-2H-cyclopenta[a]chrysen-9-yl)oxy)-2,2-dimethyl-4-oxobutanoic acid] | 6.60 to 8.00
11 | CC(C)C1=C2[C@H]3CC[C@@H]4[C@@]5(C)CC[C@H](OC(=O)CC(C)(C)C(=O)O)C(C)(C)[C@@H]5CC[C@@]4(C)[C@]3(C)CC[C@@]2(/C=C/C(=O)N[C@@H](C)c2ncccn2)CC1=O [Example 11, 4-(((3aS,5aR,5bR,7aR,9S,11aR,11bR,13aS)-1-isopropyl-5a,5b,8,8,11a-pentamethyl-2-oxo-3a-((E)-3-oxo-3-(((S)-1-(pyrimidin-2-yl)ethyl)amino)prop-1-en-1-yl)-3,3a,4,5,5a,5b,6,7,7a,8,9,10,11,11a,11b,12,13,13a-octadecahydro-2H-cyclopenta[a]chrysen-9-yl)oxy)-2,2-dimethyl-4-oxobutanoic acid] | 6.60 to 8.00
12 | CC(C)C1=C2[C@H]3CC[C@@H]4[C@@]5(C)CC[C@H](OC(=O)CC(C)(C)C(=O)O)C(C)(C)[C@@H]5CC[C@@]4(C)[C@]3(C)CC[C@@]2(/C=C/C(=O)NC2(c3ccccn3)CC2)CC1=O [Example 12, 4-(((3aS,5aR,5bR,7aR,9S,11aR,11bR,13aS)-1-Isopropyl-5a,5b,8,8,11a-pentamethyl-2-oxo-3a-((E)-3-oxo-3-((1-(pyridin-2-yl)cyclopropyl)amino)prop-1-en-1-yl)-3,3a,4,5,5a,5b,6,7,7a,8,9,10,11,11a,11b,12,13,13a-octadecahydro-2H-cyclopenta[a]chrysen-9-yl)oxy)-2,2-dimethyl-4-oxobutanoic acid] | > 8.00
